Experimental findings from paper PMC9822400, “The Lipophilic Purine Nucleoside—Tdp1 Inhibitor—Enhances DNA Damage Induced by Topotecan In Vitro and Potentiates the Antitumor Effect of Topotecan In Vivo” (Molecules, 2022) are described below.

Series [1] relates to mice ascitic Krebs-2 carcinoma. Kind of series: Antitumor effect of topotecan with compounds in vivo, ascitic Krebs-2 carcinoma model. Particulars: C57Bl/6 mice; for Tumor mass (ascites weight) and number of tumor cells, combination with Tpc compared to only Tpc: Tpc 1 mg/kg + compound 100 mg/kg i/p once on day 4, 6d p = 0.0018. The text has this: The effect of compounds 5f, 6c and 6d on the effectiveness of Tpc was studied in vivo on a mice ascitic Krebs-2 carcinoma model. Krebs-2 carcinoma can be transplanted into mice of various genetic constitutions. […] This model combines the advantages of in vitro and in vivo approaches to study the cytotoxic effects of compounds, since ascites cells grow in the environment of the body (in vivo), and intraperitoneal administration of the drug ensures its direct contact with tumor cells (in vitro), bypassing absorption, delivery to the tumor, possible transformations, etc.
During the experiment, mice were injected intraperitoneally with 2 × 10^6 ascites cells, after that a liquid ascites tumor grew at the site of inoculation.
The effect of drugs on the tumor was assessed at the end of the experiment by the weight of the ascitic tumor (the difference in the weight of the mouse with the tumor and after tumor removal), as well as by the number of tumor cells in the ascites.
Three- to four-month-old male and female C57Bl/6 mice (19–21 g) from the breeding colony of the Institute of Cytology and Genetics, SB RAS, Novosibirsk, Russia, were used in the study. The animals were kept on sawdust in plastic cages of 5–7 mice per cage with free access to ground food (“Laboratorkorm”, Moscow, Russia) and tap water. All procedures with the mice were performed in accordance with the international rules for experiments on animals [European Communities Directive (86/609 EEC)].
The experimental tumor model was transplantable Krebs-2 carcinoma obtained from the cell depository of the Institute of Cytology and Genetics SB RAS (Novosibirsk, Russia) and was maintained in mice as a transplanted tumor. Krebs-2 was obtained from epithelial cells of the abdominal wall of a mouse. Krebs-2 carcinoma is nonspecific in its host requirements and can be grafted into mice with any genetic context. With intraperitoneal inoculation, it forms an ascites form.
The antitumor effect was assessed by the weight of the ascites and by the number of tumor cells in ascites. The weight of Krebs-2 ascites was assessed by the difference in the weight of mice before and after the removal of ascites. The number of tumor cells in ascites was determined using a hemocytometer Goryaev camera. In autopsied mice, the weights of liver, lung, heart, kidneys, and spleen were assessed as well as the tumor and body weights.
The animals were treated once in total dose of Tpc 1 mg/kg and Tdp1 inhibitor (5f, 6c or 6d) 100 mg/kg. We started the treatment on the fourth day after the tumor was inoculated, with the expectation that it had just begun to form. […] The animals were euthanized eight days after the transplantation and the compound effect on mice was evaluated by measuring the tumor weight and number of tumor cells in ascites.

Series [2] is described as follows: Cell culture cytotoxicity assay (EZ4U colorimetric test). In kind it is cell-based. The settings on record: human, HeLa cells. The text has this:
(§1) Tdp1 inhibitors are intended to be used in therapeutic cocktails to sensitize tumors to the action of anticancer Top1 poisons. […] To assess the toxicity of the compounds, their effect on the survival of the HeLa cell line (human cervical cancer) was studied using the colorimetric test of metabolic activity of cells EZ4U, which reflects the survival of cells in the presence of the studied compounds. The EZ4U assay is based on the ability of living cells to reduce the colorless tetrazolium salt XTT [sodium 3,3′-{1-(phenylamino)-carbonyl-3,4-tetrazolium) -bis(4-methoxy-6-nitro)-benzene sulfonic acid hydrate] to an orange water-soluble formazan product. This method was used to investigate the intrinsic cytotoxicity of promising inhibitors discovered in the course of this work, as well as the toxicity of their combination with Tpc.
(§2) Cytotoxicity of the compounds was examined on human cell lines HeLa using an EZ4U colorimetric test (Biomedica, Vienna, Austria). The HeLa cell line was obtained from the Russian Cell Culture Collection (RCCC) Institute of Cytology RAS, St. Petersburg, Russia. The cells were grown in DMEM/F12 medium (Gibco, Thermo Fisher Scientific, Waltham, MA, USA), with 1x GlutaMAX (Gibco, Thermo Fisher Scientific, Waltham, MA, USA), 50 IU/mL penicillin, 50 μg/mL streptomycin (MP Biomedicals), and in the presence of 10% fetal bovine serum (Biolot, Saint-Petersburg, Russia) in a 5% CO2 atmosphere. Since lipophilic nucleosides are soluble in DMSO, cells were grown in the presence of 1% DMSO in the control wells. After the formation of a 30–50% monolayer, the tested compounds were added to the medium, and the cell culture was monitored for 3 days. The values were normalized to their own control in each case. At least three independent experiments were carried out. The 50% cytotoxic concentration (CC50) was defined as the compound concentration that reduced the cell viability by 50% when compared to the untreated controls. The CC50 value was determined using OriginPro 8.6.0 software (OriginLab, Northampton, MA, USA). The measurements were carried out in three independent experiments.

The next series concerns the target T1, human recombinant PARP2 (Homo sapiens, UniProt Q9UGN5).
T1 construct: made in house
Kind of series: PARP2 activity by inclusion of α-[32P]-NAD+ in poly(ADP-ribose). Type of series: biochemical. The settings on record: in the presence of 1 mM compound; read-out: Residual activity of PARP2. As for the experimental part:
Since it has previously been shown that nucleoside derivatives can inhibit enzymes of the PARP family, we also checked whether the studied compounds were able to inhibit the enzymes PARP1 and PARP2. […] Thus, when using our compounds, one cannot expect side effects from PARP1/2.
Purified human recombinant PARP1/2 [65] and [^32P] NAD^+ [27] were prepared as described earlier. The activity of PARP1/2 was evaluated by the rate of incorporation of the radioactive label into the acid-insoluble reaction product—PAR as described previously.

For another series, the system named is HeLa cells. Put plainly: Effect of compounds on topotecan cytotoxicity (EZ4U test). The settings on record: compound 10 μM in combination with Tpc. In kind it is cell-based, human.
Description: as §1
As already mentioned, we expected to increase the efficacy and/or reduce the dosage of Tpc with Tdp1 inhibitors. To do this, we studied the effect of nucleoside derivatives on Tpc cytotoxicity. […] We attribute this to the probable presence of protein targets other than Tdp1 in the cell.
as §2

Entries after “also recorded” stand apart in the source; their conditions may differ.

T1 sequence (Q9UGN5 whole entry): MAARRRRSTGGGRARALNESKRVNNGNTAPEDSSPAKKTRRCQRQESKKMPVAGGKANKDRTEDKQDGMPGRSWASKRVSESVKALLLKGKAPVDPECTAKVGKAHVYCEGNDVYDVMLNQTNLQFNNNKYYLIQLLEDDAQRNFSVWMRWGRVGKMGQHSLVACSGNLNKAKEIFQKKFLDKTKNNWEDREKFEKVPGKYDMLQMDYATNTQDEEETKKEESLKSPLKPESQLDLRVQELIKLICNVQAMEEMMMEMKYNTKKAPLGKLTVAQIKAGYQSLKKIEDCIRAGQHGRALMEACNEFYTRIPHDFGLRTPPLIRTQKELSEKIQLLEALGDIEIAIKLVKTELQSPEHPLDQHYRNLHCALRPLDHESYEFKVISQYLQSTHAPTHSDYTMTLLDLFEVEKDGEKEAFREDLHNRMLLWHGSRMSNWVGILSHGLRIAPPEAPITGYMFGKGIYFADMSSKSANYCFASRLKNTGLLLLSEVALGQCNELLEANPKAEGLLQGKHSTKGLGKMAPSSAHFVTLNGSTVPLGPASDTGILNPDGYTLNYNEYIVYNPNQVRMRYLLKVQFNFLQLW

Turning to `O=C(OC[C@H]1O[C@@H](n2cnc3c(Cl)nc(Cl)nc32)[C@H](OC(=O)c2ccccc2)[C@@H]1OC(=O)c1ccccc1)c1ccccc1` [compound 6d, 2,6-dichloro-9-(2,3,5-tri-O-benzoyl-β-D-ribofuranosyl)purine], in series [1], the “Tumor mass (ascites weight) and number of tumor cells, combination with Tpc compared to only Tpc” value (“Tumor mass … compared to only Tpc” for short) was “significant decrease; also recorded: synergistic decrease of tumor size”. Also, the “Tumor mass (ascites weight) and number of tumor cells, compound alone” value in series [1] (compound 100 mg/kg i/p once on day 4, 100 mg/kg) is “did not affect this parameter; also recorded: did not affect tumor growth”. Further, the CC50 at 3 days in series [2] stood at 33 ± 15 µM. The remaining activity at 1000 µM at human recombinant PARP2 amounted to 86 ± 9%. Further, the “Enhancement of Tpc Cytotoxicity by 10 μM Compounds” value (“Enhancement of Tpc Cytotoxicity” below) with HeLa cells is given as 4.8 Times.

Take `O=C(OC[C@H]1O[C@@H](n2cnc3c(Cl)nc(F)nc32)[C@H](OC(=O)c2ccccc2)[C@@H]1OC(=O)c1ccccc1)c1ccccc1` [compound 6c, 2-Fluoro-6-chloro-9-(2,3,5-tri-O-benzoyl-β-D-ribofuranosyl)purine]: the “Tumor mass … compared to only Tpc” value in series [1] is on record as “did not obtain the sensitizing effect; also recorded: did not result in a reliable decrease”. In addition, the CC50 at 3 days in series [2] was determined as 35 ± 20 µM. Moreover, the remaining activity at 1000 µM on human recombinant PARP2 came to 80 ± 20%. Moreover, the “Enhancement of Tpc Cytotoxicity” value with HeLa cells came out at 6.5 Times.

As for `O[C@@H]1[C@H](O)[C@@H](COC(c2ccccc2)(c2ccccc2)c2ccccc2)O[C@H]1n1cnc2c(NC(c3ccccc3)(c3ccccc3)c3ccccc3)ncnc21` [compound 5f], the “Tumor mass … compared to only Tpc” value in series [1] is recorded as “no sensitizing effect; also recorded: did not result in a reliable decrease”. The CC50 at 3 days in series [2] was more than 100 µM. The remaining activity at 1000 µM at human recombinant PARP2 was determined as 113 ± 18%. Besides, in the series on HeLa cells, the “Enhancement of Tpc Cytotoxicity” value is listed as 1.7 Times.
